Source: patent US7498406B2, “Substantially cell membrane impermeable compound and use thereof” (priority 1999, dated 2009)

How the values were obtained:
BCE = experiment: Viability of cultured cells, 72 hr; assay type: cell-based, bovine
Description: FIG. 18. Inhibition of proliferation and reduction in viability of BCE cells by GSAO. 15,000 (part A and B) or 50,000 (part C and D) BCE cells per well were seeded into gelatinised 24-well culture plates and allowed to attach for 24 hr (part A, B and D) or 72 hr (part C). The media was then replaced with DMEM containing 5% BCS and 0 to 1 mM GSAO or GSAA and either 1 ng per mL FGF-2 (part A) or 10 ng per mL VEGF (part B). In part D, the media was replaced with DMEM containing 5% BCS and 1 ng per mL FGF-2 and either 10 μM GSAO or GSAA. In part C, the media was replaced with DMEM containing 5% BCS and 0 to 1 mM GSAO or GSAA. Cells were cultured for 72 hr in parts A, B and C or for discrete times up to 48 hr in part D and then dispersed and counted. The dotted line in parts A, B and C indicate the cell number in control wells containing DMEM and 5% BCS which represented no to limited proliferation. The dotted line in part D represents no change in cell number over the 48 hr. The data points and errors represent the mean and range of duplicate wells.
BCE (Folkman et al. 1979), BAE, BxPC-3 (ATCC, Bethesda, Md.), HT1080 (Jiang et al., 1999), 3T3 (ATCC, Bethesda, Md.) and BVSM (Hogg et al., 1997) cells were harvested and cultured as indicated. Cells (0.5 mL of 30,000 or 100,000 cells per mL) were seeded into gelatinized 24-well culture plates (Corning Costar, Corning, N.Y.) in Dulbecco's Modified Eagle's Medium (DMEM, JHR Bioscience, Lenexa, Kans.) containing 10% fetal calf serum (FCS, Intergen Comp., Purchase, N.Y.) and 1% Glutamine Pen-Strep (GPS, Irvine Scientific, Santa Ana, Va.) and allowed to attach for 24 hr in 10% CO2 at 37° C. […] Cells were cultured for 0 to 72 hr in 10% CO2 at 37° C. then dispersed in trypsin/EDTA (GibcoBRL, Granc Island, N.Y.), resuspended in Coulter balanced electrolyte solution and counted with a Z1 Coulter counter (Coulter Corp., Miami, Fla.) in all experiments there were two control wells containing DMEM with 1% GPS and either 5% BCS for BCE cells, 2% BCS for BAE and BVSM cells, or 2% FCS for BxPC-3, HT1080 and 3T3 cells. […]

BVSM = experiment: Proliferation of cultured cells, 72 hr; assay type: cell-based, bovine; details: 5% BCS, 0 to 1 mM
Description: (§1) FIG. 19. Effect of GSAO on proliferation of non-endothelial cells. 15,000 BxPC-3 (part A), HT1080 (part B), 3T3 (part C) or BVSM (part D) cells per well were seeded into gelatinised 24-well culture plates and allowed to attach for 24 hr. The media was then replaced with DMEM containing 0 to 1 mM GSAO or GSAA and either 5% BCS (part D) or 5% FCS (parts A, B and C). Cells were cultured for 72 hr and then dispersed and counted. The dotted lines indicate the cell number in control wells containing DMEM and 2% BCS (part D) or 2% FCS (parts A, B and C) which represented no to limited proliferation. The data points and errors represent the mean and range of duplicate wells.
(§2) BCE (Folkman et al. 1979), BAE, BxPC-3 (ATCC, Bethesda, Md.), HT1080 (Jiang et al., 1999), 3T3 (ATCC, Bethesda, Md.) and BVSM (Hogg et al., 1997) cells were harvested and cultured as indicated. […] Cells were cultured for 0 to 72 hr in 10% CO2 at 37° C. then dispersed in trypsin/EDTA (GibcoBRL, Granc Island, N.Y.), resuspended in Coulter balanced electrolyte solution and counted with a Z1 Coulter counter (Coulter Corp., Miami, Fla.) in all experiments there were two control wells containing DMEM with 1% GPS and either 5% BCS for BCE cells, 2% BCS for BAE and BVSM cells, or 2% FCS for BxPC-3, HT1080 and 3T3 cells. […]

3T3 = experiment: Viability of cultured cells, 72 hr; assay type: cell-based, murine; details: 0 to 1 mM
Description: as §1, §2

Lewis lung tumours = experiment: Tumour growth, oral administration in water; assay type: in vivo, C57Bl6/J mice; details: ~10 mg per kg per day in water
Description: FIG. 28. Inhibition of human pancreatic carcinoma and murine Lewis lung tumour growth by oral administration of GSAO. BxPC-3 or Lewis lung tumours were established in the proximal midline of female 7 to 9 week old SCID or C57Bl6/J mice, respectively, SCID mice bearing ˜0.5 g BxPC-3 tumours or C57Bl6/J mice bearing 0.1 g Lewis lung tumours were randomised into two groups (n=2 for BxPC-3 and n=3 for Lewis lung) and treated with either GSAA or GSAO (0.05 mg per mL) in their water. Mice drink ˜5 mL of water per day and therefore consumed ˜10 mg GSAO or GSM per kg per day. The water contained 100 mM glycine to minimise oxidation of GSAO. Tumour volume and animal weight was measured every 3 days. The data points and errors represent the mean and SE of the tumour volumes.
SCID mice bearing subcutaneous human pancreatic carcinoma tumours or C57Bl6/J mice bearing subcutaneous murine Lewis lung tumours were fed either ˜10 mg per kg per day GSAO or GSAA in their water.

SMILES | time dependence of the decrease in viability (BCE; 10 μM, 1 ng per mL FGF-2, up to 48 hr) | IC50 (BCE; 5% BCS + 10 ng/mL VEGF, >90% confluent, 72 hr) | Proliferation IC50 (BVSM) | IC50 (3T3; Mus musculus, NIH3T3, 5% FCS) | reduction of the rate of Lewis lung tumour growth (Lewis lung tumours) | effect on viability of BCE cells (BCE; 0 to 1 mM) | Viability IC50 (3T3; 5% FCS)
NC(CCC(=O)NC(CSCC(=O)Nc1ccc([As]=O)cc1)C(=O)NCC(=O)O)C(=O)O (stereo not drawn) [GSAO, 4-(N-(S-glutathionylacetyl)amino)-phenylarsenoxide] | no decrease in viability after 8 hours | ~3 µM | did not affect the proliferation | ~40 µM | ~50% |  | 
N[C@@H](CCC(=O)N[C@@H](CSCC(=O)Nc1ccc([As](=O)(O)O)cc1)C(=O)NCC(=O)O)C(=O)O [GSAA, 4-(N-(S-glutathionylacetyl)amino)phenylarsonic acid, reference compound] |  |  | no significant effect |  | no significant effect | no significant effect on viability | no significant effect
